Test results as given in US12393007B2, “Method for adapting optical properties of an immersion mixture, and immersion mixtures and components thereof” (Carl Zeiss Microscopy GmbH, priority 2018, dated 2025).
Where a name gives a salt, the structure may show the parent alone.

assay: Refractive index ne at 23° C., reference wavelength 546.1 nm; format: physicochemical; settings: not given

Compared with `OCC(F)(OC(F)(F)C(F)(OC(F)(F)C(F)(F)C(F)(F)F)C(F)(F)F)C(F)(F)F` (centres unmarked) [Cheminox PO-3-OH, 2,3,3,3-tetrafluoro-2-[1,1,2,3,3,3-hexafluoro-2-(heptafluoropropoxy)propoxy]-1-propanol], “tetrahydrofurfuryl alcohol polyethylene glycol ether” is higher in “ne (refractive index) of the substance” value: 1.2944 for the first, 1.4621 for the second.

In the case of dimethyl propylene urea, the “ne (refractive index) of the substance” value is reported as 1.4909.

First: O.O.O.O.O.O.O.O=S(=O)([O-])[O-].[Mg+2] [magnesium sulfate heptahydrate]
Second: ammonium sulfate
The “ne (refractive index) of aqueous solution 200 g/L” value of the first is lower: 1.3529 for the first, 1.3629 for the second.

First: O=C([O-])c1ccccc1O.[Na+] [sodium salicylate]
Second: N#C[S-].[Na+] [sodium thiocyanate]
The “ne (refractive index) of aqueous solution 200 g/L” value of the first is lower: 1.3747 for the first, 1.3765 for the second.

For `O.O.[Na+].[Na+].[O]=[W](=[O])([O-])[O-]` [sodium tungstate dihydrate], the “ne (refractive index) of aqueous solution 200 g/L” value was 1.3531.

same assay, conditions: pure substance; 23° C.; 546.1 nm

Compared with `CCCC(O)C(CC)CO` (centres unmarked) [2-ethylhexane-1,3-diol], `CCOC(=O)/C=C/C(=O)OCC` [diethyl fumarate] is lower in “ne (refractive index) of the substance” value: 1.4518 for the first, 1.4419 for the second.

First: CCCCC(CC)C(=O)OCCOCCOCCOC(=O)C(CC)CCCC (centres unmarked) [triethylene glycol bis(2-ethylhexanoate)]
Second: CC(=O)OCCOC(C)=O [ethylene glycol diacetate]
The “ne (refractive index) of the substance” value of the first is higher: 1.4449 for the first, 1.4161 for the second.

First: CCOC(=O)/C=C\C(=O)OCC [diethyl maleate]
Second: CCOCCOCCOCC [diethylene glycol diethyl ether]
The “ne (refractive index) of the substance” value of the first is higher: 1.4414 for the first, 1.4126 for the second.

Compared with `CC(=O)CC(C)(C)O` [diacetone alcohol, 4-hydroxy-4-methyl-2-pentanone], `CCCCC(CC)COC(=O)CCCCCCCCC(=O)OCC(CC)CCCC` (centres unmarked) [bis (2-ethylhexyl) sebacate] is higher in “ne (refractive index) of the substance” value: 1.4244 for the first, 1.4511 for the second.

Going from `COC(=O)CCCCC(=O)OC` [dimethyl adipate] to “bis(hydroxymethyl)perfluoropolyether [Cheminox OXF-3PO-OH]”, the “ne (refractive index) of the substance” value falls from 1.4289 to 1.3220.

Compared with `CCOC(=O)CCC(=O)OCC` [diethyl succinate], `COC(=O)/C=C\C(=O)OC` [dimethyl maleate] is higher in “ne (refractive index) of the substance” value: 1.4200 for the first, 1.4435 for the second.

With `CCOC(=O)CC(O)(CC(=O)OCC)C(=O)OCC` [triethyl citrate] the “ne (refractive index) of the substance” value was 1.4431.

assay: not given; settings: source Merck; cited from earlier work

`O.O.[Na+].[Na+].[O]=[Mo](=[O])([O-])[O-]` [sodium molybdate dihydrate] and `O.O.[Na+].[Na+].[O]=[W](=[O])([O-])[O-]` [sodium tungstate dihydrate] are within 1.5-fold of each other in “solubility in water (20° C.)” value: 840 mg/mL for the first, 730 mg/mL for the second.
